Active and inactive are the calls of the source. No rule for the calls is given here.

The test has as its system Ga16-expressing cells, calcium fluorescence, agonist counterscreen. Put plainly: Ga16 cell calcium activation, concentration series – fluorescence, dose response, counter-screen for TAAR1 antagonist project, late-stage follow-up (AID 743236). For orientation: A counterscreen serves to expose hits that act by an unwanted route or on another target.
As to `CCCCC(=O)Nc1ccc(C(=O)Nc2ccc(S(=O)(=O)N3CCCC3)cc2)cc1`, the EC50 – broadly, the concentration that produces a half-maximal response – is > 29.9 µM (inactive).
The value for `COc1cccc(-c2nn(-c3ccccc3)cc2C(=O)Nc2nccs2)c1` was > 29.9 µM (inactive); that for `Cc1nn(Cc2c(F)c(F)c(F)c(F)c2F)c(C)c1NC(=O)c1ccc(COc2ccccc2Cl)cc1` was > 29.9 µM (inactive).
Regarding `Cc1coc(NC(=O)CSc2nc(-c3ccc(Cl)cc3)cc(C(F)(F)F)c2C#N)n1`, the EC50 was > 29.9 µM (inactive).
With `Cc1cccc(C(C#N)c2nc3ccccc3nc2C(F)(F)F)c1` (centres undefined), the EC50 is > 29.9 µM (inactive).
For `Cc1ccc(CSCC(=O)Nc2cc(S(=O)(=O)N3CCOCC3)ccc2OCC(F)(F)F)cc1`, the EC50 is > 29.9 µM (inactive).
In the case of `CC(=O)c1ccc(NC(=O)c2ccc(COc3ccccc3[N+](=O)[O-])o2)cc1` it was > 29.9 µM (inactive).
For the compound `COc1cc(NC(=O)c2cc3ccccc3o2)c(OC)cc1Cl`, the EC50 is > 29.9 µM (inactive).
For `O=C(NCCn1cc(SCc2ccccc2F)c2ccccc21)c1c(F)cccc1F`, the EC50 was > 29.9 µM (inactive).
